Values belong to the molecule of their own block, whether it stands above or below them.
Tests used:
[1] = Rodent pharmacokinetics, male CD1 mouse, plasma PK; format: in vivo; settings: for clearance / AUC / AUC(0-inf) / AUC(0-t) / Cmax / Vd / half-life: male, CD1, mouse
Protocol: Formulation: 10% DMSO, 90% Saline Dosing: 10 mg/kg P.O. and 5 mg/kg I.V. Plasma PK Summary:
Formulation: 10% DMSO, 90% Saline
Dosing: 10 mg/kg P.O. and 5 mg/kg I.V.

PI3K isoforms = assay: HTRF biochemical assay, fold selectivity between PI3K isoforms; settings: isoform selectivity
Source text: (§1) Fold form selectivity inhibition data against PI3K isoforms, as determined using a HTRF biochemical assay, is listed below.

[2] = Rodent pharmacokinetics, male Balb/c mouse, plasma PK; format: in vivo; settings: for clearance: male, Balb/c, mouse, iv; for clearance / AUC(0-inf) / AUC(0-t) / Cmax / half-life / Vd / Tmax / bioavailability: plasma; for Vd: read-out: Vss
Protocol: Animals in Group 1 were administered intravenously with Example B solution formulation in 20% Propylene Glycol, 50% of PEG 400 and 30% of (20% HPβCD in water) via tail vein at a dose of 3 mg/kg.
Animals in Group 2 were administered with oral solution formulation of Example B in 20% Propylene Glycol, 50% of PEG 400 and 30% of (20% HPβCD in water) at a dose of 10 mg/kg;
Dosing: 10 mg/kg P.O. and 3 mg/kg I.V.
Animals in Group 1 were administered intravenously with Example G solution formulation in 5% NMP, 5% solutol HS-15 in 90% HPβCD solution (20% HPβCD in RO water) at 3 mg/kg dose.
Animals in Group 2 were administered orally with 10 mg/kg solution formulation of Example G in 5% NMP, 5% solutol HS-15 in 90% HPβCD solution (20% HPβCD in RO water)

PI3K p110α = PI3K p110α (Homo sapiens, UniProt P42336); assay: HTRF biochemical assay, PI3K p110α
Source text: as §1

PI3K p110β = PI3K p110β (Homo sapiens, UniProt P42338); assay: HTRF biochemical assay, PI3K p110β
Source text: as §1

PI3K p110δ = PI3K p110δ (Homo sapiens, UniProt O00329); assay: HTRF biochemical assay, PI3K p110δ
Source text: as §1

PI3K p110γ = PI3K p110γ (Homo sapiens, UniProt P48736); assay: HTRF biochemical assay, PI3K p110γ
Source text: as §1

[3] = plasma, iv, 5 mg/kg, 5 mg/kg I.V., summary
[4] = plasma, iv, 5 mg/kg, Mesylate Salt
[5] = plasma, po, 10 mg/kg, Mesylate Salt
[6] = plasma, IV, 5 mg/kg, Mesylate Salt, read-out: Tmax
[7] = plasma, PO, 10 mg/kg, Mesylate Salt, read-out: Tmax
[8] = plasma, oral, 10 mg/kg P.O. and 5 mg/kg I.V., rounded summary in text, read-out: Oral bioavailability (F)
[9] = plasma, po, 10 mg/kg, summary table, unit inferred, read-out: Oral Bioavailability (F)
[10] = oral, 10 mg/kg P.O. and 3 mg/kg I.V., read-out: Oral bioavailability (F)
[11] = po, 10 mg/kg, summary table, unit inferred, read-out: Oral Bioavailability (F)

PI3K p110β, sequence (P42338 whole entry): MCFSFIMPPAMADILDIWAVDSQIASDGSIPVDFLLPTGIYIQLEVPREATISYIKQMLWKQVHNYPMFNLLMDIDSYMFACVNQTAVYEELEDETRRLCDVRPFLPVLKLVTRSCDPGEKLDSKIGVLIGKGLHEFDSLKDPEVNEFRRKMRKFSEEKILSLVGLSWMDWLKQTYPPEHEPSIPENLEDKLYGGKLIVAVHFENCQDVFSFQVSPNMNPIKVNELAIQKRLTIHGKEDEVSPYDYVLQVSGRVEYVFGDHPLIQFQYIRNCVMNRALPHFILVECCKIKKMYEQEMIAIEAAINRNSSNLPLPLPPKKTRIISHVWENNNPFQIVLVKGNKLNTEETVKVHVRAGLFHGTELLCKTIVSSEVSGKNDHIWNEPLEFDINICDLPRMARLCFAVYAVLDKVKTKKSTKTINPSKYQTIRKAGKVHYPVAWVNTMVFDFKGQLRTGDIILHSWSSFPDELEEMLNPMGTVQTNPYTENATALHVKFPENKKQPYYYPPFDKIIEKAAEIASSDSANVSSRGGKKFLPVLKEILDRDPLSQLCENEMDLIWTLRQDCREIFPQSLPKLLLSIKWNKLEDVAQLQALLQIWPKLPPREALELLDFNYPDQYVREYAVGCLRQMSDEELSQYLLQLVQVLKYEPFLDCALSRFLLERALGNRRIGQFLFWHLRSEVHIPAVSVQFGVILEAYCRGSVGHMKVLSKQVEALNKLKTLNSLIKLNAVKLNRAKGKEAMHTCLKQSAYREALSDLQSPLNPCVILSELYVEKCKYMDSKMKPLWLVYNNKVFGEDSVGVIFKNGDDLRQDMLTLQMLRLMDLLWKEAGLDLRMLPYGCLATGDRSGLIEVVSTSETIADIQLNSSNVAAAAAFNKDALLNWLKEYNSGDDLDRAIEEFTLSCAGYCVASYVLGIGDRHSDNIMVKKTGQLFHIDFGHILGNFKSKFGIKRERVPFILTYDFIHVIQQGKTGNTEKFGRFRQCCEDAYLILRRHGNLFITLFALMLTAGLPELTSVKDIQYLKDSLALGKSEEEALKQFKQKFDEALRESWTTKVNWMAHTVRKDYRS
PI3K p110β, sequence (P27986 whole entry partner): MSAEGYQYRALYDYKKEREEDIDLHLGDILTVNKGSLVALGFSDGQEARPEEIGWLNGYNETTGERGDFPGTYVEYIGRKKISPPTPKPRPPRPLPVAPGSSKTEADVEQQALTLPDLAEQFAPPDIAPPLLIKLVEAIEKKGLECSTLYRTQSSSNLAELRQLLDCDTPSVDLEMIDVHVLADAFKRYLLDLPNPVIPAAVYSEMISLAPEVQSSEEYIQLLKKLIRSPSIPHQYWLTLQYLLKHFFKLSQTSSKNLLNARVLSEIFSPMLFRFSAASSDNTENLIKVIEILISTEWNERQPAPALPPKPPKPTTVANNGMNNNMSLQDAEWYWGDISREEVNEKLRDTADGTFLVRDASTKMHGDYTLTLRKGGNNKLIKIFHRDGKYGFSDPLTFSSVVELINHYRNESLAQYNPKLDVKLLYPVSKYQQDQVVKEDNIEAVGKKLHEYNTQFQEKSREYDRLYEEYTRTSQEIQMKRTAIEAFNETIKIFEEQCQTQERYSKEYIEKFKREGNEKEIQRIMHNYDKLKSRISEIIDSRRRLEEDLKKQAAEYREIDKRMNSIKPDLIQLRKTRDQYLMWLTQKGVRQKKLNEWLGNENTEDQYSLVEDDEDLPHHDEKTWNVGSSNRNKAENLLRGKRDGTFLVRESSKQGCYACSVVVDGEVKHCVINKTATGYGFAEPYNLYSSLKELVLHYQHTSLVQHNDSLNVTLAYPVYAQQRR
PI3K p110α, sequence (P42336 whole entry): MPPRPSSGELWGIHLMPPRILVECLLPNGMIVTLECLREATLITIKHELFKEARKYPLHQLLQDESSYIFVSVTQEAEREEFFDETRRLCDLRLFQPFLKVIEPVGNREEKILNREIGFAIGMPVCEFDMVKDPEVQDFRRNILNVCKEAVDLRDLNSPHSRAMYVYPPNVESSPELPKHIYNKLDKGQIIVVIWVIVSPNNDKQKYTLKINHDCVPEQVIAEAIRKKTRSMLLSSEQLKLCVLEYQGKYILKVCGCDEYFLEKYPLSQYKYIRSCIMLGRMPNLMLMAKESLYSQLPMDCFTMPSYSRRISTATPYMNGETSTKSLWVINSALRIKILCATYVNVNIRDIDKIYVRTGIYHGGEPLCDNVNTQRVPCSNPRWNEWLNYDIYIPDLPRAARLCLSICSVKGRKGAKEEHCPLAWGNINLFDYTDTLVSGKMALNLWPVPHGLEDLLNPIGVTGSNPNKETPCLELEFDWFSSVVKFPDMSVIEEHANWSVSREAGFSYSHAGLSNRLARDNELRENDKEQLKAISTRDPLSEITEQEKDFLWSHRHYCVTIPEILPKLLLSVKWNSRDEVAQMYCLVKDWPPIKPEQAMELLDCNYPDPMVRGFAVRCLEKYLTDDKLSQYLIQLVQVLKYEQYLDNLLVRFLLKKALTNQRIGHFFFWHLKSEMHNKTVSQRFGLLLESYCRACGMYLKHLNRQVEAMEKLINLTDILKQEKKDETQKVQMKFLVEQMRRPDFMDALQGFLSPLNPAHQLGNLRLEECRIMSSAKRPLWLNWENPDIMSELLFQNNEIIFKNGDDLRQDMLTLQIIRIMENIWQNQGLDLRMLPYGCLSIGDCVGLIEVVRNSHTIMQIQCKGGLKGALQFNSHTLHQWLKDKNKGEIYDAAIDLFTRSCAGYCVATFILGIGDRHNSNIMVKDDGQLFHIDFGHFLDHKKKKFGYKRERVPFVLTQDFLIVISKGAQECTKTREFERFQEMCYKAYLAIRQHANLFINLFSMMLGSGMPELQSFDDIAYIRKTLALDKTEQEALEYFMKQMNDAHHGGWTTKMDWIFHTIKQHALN
PI3K p110α, sequence (P27986 whole entry partner): as the sequence (P27986 whole entry partner) above
PI3K p110δ, sequence (O00329 whole entry): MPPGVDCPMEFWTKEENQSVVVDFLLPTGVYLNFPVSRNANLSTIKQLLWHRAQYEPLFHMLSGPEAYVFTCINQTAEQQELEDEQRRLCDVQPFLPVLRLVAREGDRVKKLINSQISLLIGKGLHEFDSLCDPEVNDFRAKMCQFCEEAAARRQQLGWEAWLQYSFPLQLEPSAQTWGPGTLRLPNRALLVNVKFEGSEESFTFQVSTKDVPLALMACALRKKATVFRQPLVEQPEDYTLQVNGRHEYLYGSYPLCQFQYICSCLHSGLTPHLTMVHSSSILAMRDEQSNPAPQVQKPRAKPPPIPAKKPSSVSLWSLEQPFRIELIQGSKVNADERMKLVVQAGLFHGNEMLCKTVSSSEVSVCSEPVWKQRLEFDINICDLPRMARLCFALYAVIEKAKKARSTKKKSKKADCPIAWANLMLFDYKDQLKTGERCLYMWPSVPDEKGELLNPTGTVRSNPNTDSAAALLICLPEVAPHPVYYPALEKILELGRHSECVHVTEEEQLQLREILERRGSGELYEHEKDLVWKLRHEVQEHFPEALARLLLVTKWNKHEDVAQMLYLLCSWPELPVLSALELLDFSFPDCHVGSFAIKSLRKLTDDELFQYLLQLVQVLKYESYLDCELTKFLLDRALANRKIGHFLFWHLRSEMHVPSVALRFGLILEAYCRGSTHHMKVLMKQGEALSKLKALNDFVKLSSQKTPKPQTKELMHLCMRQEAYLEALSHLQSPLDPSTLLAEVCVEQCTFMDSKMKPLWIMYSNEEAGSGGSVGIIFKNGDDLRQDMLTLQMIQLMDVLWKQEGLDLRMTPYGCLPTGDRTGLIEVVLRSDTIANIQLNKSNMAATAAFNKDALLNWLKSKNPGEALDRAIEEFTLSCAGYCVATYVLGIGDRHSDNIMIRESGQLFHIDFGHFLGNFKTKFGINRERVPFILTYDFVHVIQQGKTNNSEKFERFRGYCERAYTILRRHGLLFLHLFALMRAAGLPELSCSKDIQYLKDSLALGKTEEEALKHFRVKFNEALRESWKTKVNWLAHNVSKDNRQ
PI3K p110δ, sequence (P27986 whole entry partner): as the sequence (P27986 whole entry partner) above
PI3K p110γ, sequence (P48736 whole entry): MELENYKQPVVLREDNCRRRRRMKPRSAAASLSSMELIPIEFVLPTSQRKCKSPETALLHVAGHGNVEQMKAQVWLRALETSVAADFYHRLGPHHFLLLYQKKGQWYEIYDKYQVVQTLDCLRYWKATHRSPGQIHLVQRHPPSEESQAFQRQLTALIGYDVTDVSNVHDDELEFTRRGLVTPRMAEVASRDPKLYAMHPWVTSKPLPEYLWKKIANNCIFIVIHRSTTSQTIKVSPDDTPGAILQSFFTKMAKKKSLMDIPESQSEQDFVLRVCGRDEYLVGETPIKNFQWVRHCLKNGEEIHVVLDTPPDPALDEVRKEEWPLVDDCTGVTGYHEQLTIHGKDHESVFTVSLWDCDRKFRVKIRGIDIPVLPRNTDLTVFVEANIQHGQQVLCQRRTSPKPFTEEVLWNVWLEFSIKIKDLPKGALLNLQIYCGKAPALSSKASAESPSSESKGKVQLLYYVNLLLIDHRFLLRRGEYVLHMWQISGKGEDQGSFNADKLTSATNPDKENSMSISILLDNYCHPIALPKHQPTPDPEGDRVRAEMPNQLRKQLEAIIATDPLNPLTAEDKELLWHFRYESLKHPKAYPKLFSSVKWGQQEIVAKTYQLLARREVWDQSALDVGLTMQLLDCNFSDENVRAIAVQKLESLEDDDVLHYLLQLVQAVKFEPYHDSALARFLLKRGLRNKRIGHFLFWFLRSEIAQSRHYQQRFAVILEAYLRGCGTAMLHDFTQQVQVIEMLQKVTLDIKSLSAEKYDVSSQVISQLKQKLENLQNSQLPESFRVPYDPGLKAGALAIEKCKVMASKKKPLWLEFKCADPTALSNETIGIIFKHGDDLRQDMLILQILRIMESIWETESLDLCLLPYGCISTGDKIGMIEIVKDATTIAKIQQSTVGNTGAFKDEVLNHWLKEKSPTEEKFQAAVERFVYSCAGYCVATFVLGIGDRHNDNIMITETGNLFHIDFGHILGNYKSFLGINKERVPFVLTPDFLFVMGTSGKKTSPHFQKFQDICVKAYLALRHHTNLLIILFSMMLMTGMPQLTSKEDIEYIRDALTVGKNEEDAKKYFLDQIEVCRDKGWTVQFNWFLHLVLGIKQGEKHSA

Structure (SMILES): c1cc(-c2nc(N3CCOCC3)c3oc4ncc(CN5C[C@@H]6C[C@H]5CO6)cc4c3n2)c2cc[nH]c2c1 [Example A, 4-(1H-Indol-4-yl)-6-(morpholin-4-yl)-12-[(1S,4S)-2-oxa-5-azabicyclo[2.2.1]heptan-5-ylmethyl]-8-oxa-3,5,10-triazatricyclo[7.4.0.0^2,7]trideca-1(13),2(7),3,5,9,11-hexaene]
- F ([1]; PO, 10 mg/kg, Mesylate Salt): 73.77%
- clearance [1, 3]: 21 mL/min/kg
- AUC [1, 4]: 3900 ng·h/mL
- AUC(0-inf) [1, 4]: 3950 ng·h/mL
- AUC(0-t) [1, 4]: 3900 ng·h/mL
- Cmax [1, 4]: 2640 ng/mL
- Vd [1, 4]: 2.44 L/kg
- clearance [1, 4]: 21.1 mL/min/kg
- half-life [1, 4]: 1.3 h
- AUC [1, 5]: 5620 ng·h/mL
- AUC(0-inf) [1, 5]: 5820 ng·h/mL
- AUC(0-t) [1, 5]: 5620 ng·h/mL
- Cmax [1, 5]: 1970 ng/mL
- half-life [1, 5]: 1.3 h
- Tmax [1, 6]: 0.08 h
- Tmax [1, 7]: 1 h
- bioavailability [1, 8]: 74%
- bioavailability [1, 9]: 74%

Structure (SMILES): c1cc(-c2nc(N3CCOCC3)c3oc4ncc(CN5CCC6(CC5)COC6)cc4c3n2)c2cc[nH]c2c1 [Example B, 4-(1H-Indol-4-yl)-6-(morpholin-4-yl)-12-{2-oxa-7-azaspiro[3.5]nonan-7-ylmethyl}-8-oxa-3,5,10-triazatricyclo[7.4.0.027]trideca-1(13),2(7),3,5,9,11-hexaene]
- Fold IC50 p110β/p110α (PI3K isoforms): ** (** = ≥50x)
- Fold IC50 p110β/p110γ (PI3K isoforms): ** (** = ≥50x)
- Fold IC50 p110δ/p110α (PI3K isoforms): ** (** = ≥50x)
- Fold IC50 p110δ/p110γ (PI3K isoforms): ** (** = ≥50x)
- F ([2]; PO, 10 mg/kg, Mesylate Salt): 74%
- clearance ([2]; 3 mg/kg, 3 mg/kg I.V., summary): 33 mL/min/kg
- clearance ([2]; 3 mg/kg, Mesylate Salt): 33.1 mL/min/kg
- AUC(0-inf) ([2]; IV, 3 mg/kg, Mesylate Salt): 1510 ng·h/mL
- AUC(0-t) ([2]; IV, 3 mg/kg, Mesylate Salt): 1510 ng·h/mL
- Cmax ([2]; IV, 3 mg/kg, Mesylate Salt): 621 ng/mL
- half-life ([2]; IV, 3 mg/kg, Mesylate Salt): 1.23 h
- Vd ([2]; IV, 3 mg/kg, Mesylate Salt): 5.51 L/kg
- AUC(0-inf) ([2]; PO, 10 mg/kg, Mesylate Salt): 4100 ng·h/mL
- AUC(0-t) ([2]; PO, 10 mg/kg, Mesylate Salt): 3730 ng·h/mL
- Cmax ([2]; PO, 10 mg/kg, Mesylate Salt): 780 ng/mL
- Tmax ([2]; PO, 10 mg/kg, Mesylate Salt): 1 h
- bioavailability [2, 10]: 74%
- bioavailability [2, 11]: 74%

Structure (SMILES): c1cc(-c2nc(N3CCOCC3)c3oc4ncc(CN5CCC56COC6)cc4c3n2)c2cc[nH]c2c1 [Example G, 4-(1H-indol-4-yl)-6-(morpholin-4-yl)-12-{6-oxa-1-azaspiro[3.3]heptan-1-ylmethyl}-8-oxa-3,5,10-triazatricyclo[7.4.0.0^2,7]trideca-1(13),2(7),3,5,9,11-hexaene]
- IC50 (PI3K p110α): ≤ 500 nM
- IC50 (PI3K p110β): ≤ 500 nM
- IC50 (PI3K p110δ): ≤ 500 nM
- IC50 (PI3K p110γ): 500 to 1000 nM
- F ([2]; PO, 10 mg/kg, Mesylate Salt): 30%
- clearance ([2]; 3 mg/kg, 3 mg/kg I.V., summary): 26 mL/min/kg
- clearance ([2]; 3 mg/kg, Mesylate Salt): 25.8 mL/min/kg
- AUC(0-inf) ([2]; IV, 3 mg/kg, Mesylate Salt): 1940 ng·h/mL
- AUC(0-t) ([2]; IV, 3 mg/kg, Mesylate Salt): 1920 ng·h/mL
- Cmax ([2]; IV, 3 mg/kg, Mesylate Salt): 2210 ng/mL
- half-life ([2]; IV, 3 mg/kg, Mesylate Salt): 0.59 h
- Vd ([2]; IV, 3 mg/kg, Mesylate Salt): 1.25 L/kg
- AUC(0-inf) ([2]; PO, 10 mg/kg, Mesylate Salt): 2140 ng·h/mL
- AUC(0-t) ([2]; PO, 10 mg/kg, Mesylate Salt): 1890 ng·h/mL
- Cmax ([2]; PO, 10 mg/kg, Mesylate Salt): 833 ng/mL
- Tmax ([2]; PO, 10 mg/kg, Mesylate Salt): 0.25 h
- bioavailability [2, 10]: 30%
- bioavailability [2, 11]: 30%

Other lines, results leading:

- Fold IC50 p110β/p110α (PI3K isoforms): ** (** = ≥50x)
- Fold IC50 p110β/p110γ (PI3K isoforms): ** (** = ≥50x)
- Fold IC50 p110δ/p110α (PI3K isoforms): ** (** = ≥50x)
- Fold IC50 p110δ/p110γ (PI3K isoforms): ** (** = ≥50x)
Structure (SMILES): CN1CCC2(CCN(Cc3cnc4oc5c(N6CCOCC6)nc(-c6cccc7[nH]ccc67)nc5c4c3)CC2)C1 [Example D, 4-(1H-Indol-4-yl)-12-({2-methyl-2,8-diazaspiro[4.5]decan-8-yl}methyl)-6-(morpholin-4-yl)-8-oxa-3,5,10-triazatricyclo[7.4.0.0^2,7]trideca-1(13),2(7),3,5,9,11-hexaene]

- Fold IC50 p110β/p110α (PI3K isoforms): ** (** = ≥50x)
- Fold IC50 p110β/p110γ (PI3K isoforms): ** (** = ≥50x)
- Fold IC50 p110δ/p110α (PI3K isoforms): ** (** = ≥50x)
- Fold IC50 p110δ/p110γ (PI3K isoforms): ** (** = ≥50x)
Structure (SMILES): CN1CCC2(CCN(Cc3cnc4oc5c(N6CCOCC6)nc(-c6cccc7[nH]ccc67)nc5c4c3)C2)C1 (centres unmarked) [Example E, 4-(1H-Indol-4-yl)-12-({7-methyl-2,7-diazaspiro[4.4]nonan-2-yl}methyl)-6-(morpholin-4-yl)-8-oxa-3,5,10-triazatricyclo[7.4.0.0^2,7]trideca-1(13),2(7),3,5,9,11-hexaene]

- Tmax ([1]; IV, 5 mg/kg, HCl Salt): 0.08 h
- F ([1]; PO, 10 mg/kg, HCl Salt): 29.6%
- Tmax ([1]; PO, 10 mg/kg, HCl Salt): 1.0 h
- F ([1]; PO, 10 mg/kg, Mesylate Salt): 27.8%
- clearance [1, 3]: 66 mL/min/kg
- AUC ([1]; plasma, iv, 5 mg/kg, HCl Salt): 1480 ng·h/mL
- AUC(0-inf) ([1]; plasma, iv, 5 mg/kg, HCl Salt): 1520 ng·h/mL
- AUC(0-t) ([1]; plasma, iv, 5 mg/kg, HCl Salt): 1480 ng·h/mL
- Cmax ([1]; plasma, iv, 5 mg/kg, HCl Salt): 1710 ng/mL
- Vd ([1]; plasma, iv, 5 mg/kg, HCl Salt): 10.1 L/kg
- clearance ([1]; plasma, iv, 5 mg/kg, HCl Salt): 55 mL/min/kg
- half-life ([1]; plasma, iv, 5 mg/kg, HCl Salt): 7.6 h
- AUC [1, 4]: 1240 ng·h/mL
- AUC(0-inf) [1, 4]: 1260 ng·h/mL
- AUC(0-t) [1, 4]: 1240 ng·h/mL
- Cmax [1, 4]: 1620 ng/mL
- Vd [1, 4]: 4.6 L/kg
- clearance [1, 4]: 66.1 mL/min/kg
- half-life [1, 4]: 1.6 h
- AUC ([1]; plasma, po, 10 mg/kg, HCl Salt): 849 ng·h/mL
- AUC(0-inf) ([1]; plasma, po, 10 mg/kg, HCl Salt): 896 ng·h/mL
- AUC(0-t) ([1]; plasma, po, 10 mg/kg, HCl Salt): 849 ng·h/mL
- Cmax ([1]; plasma, po, 10 mg/kg, HCl Salt): 322 ng/mL
- half-life ([1]; plasma, po, 10 mg/kg, HCl Salt): 1.8 h
- AUC [1, 5]: 657 ng·h/mL
- AUC(0-inf) [1, 5]: 700 ng·h/mL
- AUC(0-t) [1, 5]: 657 ng·h/mL
- Cmax [1, 5]: 212 ng/mL
- half-life [1, 5]: 1.9 h
- Tmax [1, 6]: 0.08 h
- Tmax [1, 7]: 1 h
- bioavailability [1, 8]: 28%
- bioavailability [1, 9]: 28%
Structure (SMILES): c1cc(-c2nc(N3CCOCC3)c3oc4ncc(CN5CCCCC5)cc4c3n2)c2cc[nH]c2c1 [Example I in WO2011/021038]

— patent US9981987B2, “Tricyclic heterocyclic compounds as phosphoinositide 3-kinase inhibitors” (Karus Therapeutics Limited, priority 2014, dated 2018)
